Experimental data taken from patent US3985758A, “1,4-Dihydropyridine derivatives” (Yamanouchi Pharmaceutical Co., Ltd., priority 1973, dated 1976).
Converted amounts (≈) assume the structure as drawn. Counter-ions that a name gives are not always drawn. Like-named read-outs stand apart in the source and are kept apart here.

Assays:
[1] = Solubility in water at 25° C; assay type: physicochemical
in vivo = details: mouse, in vivo, iv
Experimental: LD50 was determined by using mice.
2. Acute toxicity in mice
Male ICR weighing 25 to 32 g were used. The test compounds were injected into tail vein and LD 50 values were determined.

[2] = test system: vertebral and femoral blood flow; assay: Vertebral and femoral blood flow in anesthetized dogs; assay type: in vivo, mongrel dog; details: 0.01 mg/kg i.v. (0.01 or 0.03 mg/kg); for Blood pressure change (Δ mmHg): femoral artery; for Separation ratio (percent increase of vertebral blood flow / that of femoral blood flow): significance vs SKF 24260
Experimental: Vertebral and femoral blood flow in anesthetized dogs.
Mongrel dogs of both sexes weighing from 12 to 27 kg were anesthetized with sodium pentobarbitol (30 mg/kg i.v.). In all experiments, trachea was cannulated and the animals were artificially ventilated with room air. Blood pressure in cannulated femoral artery was measured by means of a pressure transducer (Nihon Kohden, MPU 0.5). Vertebral and femoral blood flow were measured by a noncannulating electromagnetic flowmeter (Nihon Kohden, MF-25) positioned around the vessels. Recordings were made on an ink-writing polygraph (Nihon Kohden, RM-150 or RM-85). The test compounds were injected at a dose of 0.01 mg/kg into femoral vein.

vertebral artery = assay: Direct vasodilating effect on vertebral artery, constant volume perfusion; assay type: in vivo, mongrel dog; details: intra-arterial; for Vasodilation ED50, vertebral artery: ±SE, maximum response to papaverine 3000 μg i.a. = 100%
Source text: (§1) Heparin (1000 μ/Kg, i.v.) was used as an anticoagulant. The methods for perfusion of each artery were as following: 1) For the vertebral artery, the arterial blood led from the left common carotid artery was collected by the tygon tubing and perfused by the Sigma-motor pump (Mippleport N.Y. T-8) into the right vertebral artery. 2) For the femoral artery, the arterial blood led from the proximal femoral artery was perfused by the Sigma-motor pump into the distal femoral artery. […] All drugs were given into a rubber tube connected close to the each arterial cannula by a microinjector (Jintan Terumo, NSN-100).

femoral artery = assay: Direct vasodilating effect on femoral artery, constant volume perfusion; assay type: in vivo, mongrel dog; details: intra-arterial; ±SE; maximum response to papaverine 3000 μg i.a. = 100%
Source text: For the analysis of the selective effect on vasculature by the drugs, direct effect on cerebral (vertebral artery) and peripheral (femoral artery) vascular bed were studied by the method of the constant volume perfusion.
as §1

[3] = Naturwissenschaften 58, (11)578(1971); cited from earlier work
guinea-pig ileum = assay: Spasmolytic activity in isolated guinea-pig ileum (Magnus apparatus); details: Cavia porcellus, ±S.E.
Experimental: Methods: Isolated guinea-pig ileum was suspended in Tyrodes solution by use of Magnus apparatus and the movements of the muscle were recorded in a kymograph by an isotonic lever.

[4] = compounds of the present invention, 25° C
[5] = compounds of the present invention, 25° C, at the given pH, read-out: Solubility

With “2,6-dimethyl-4-(2'-nitrophenyl)-1,4-dihydropyridine-3,5-dicarboxylic acid bis[β-(N-benzyl-N-methylaminethyl] ester hydrochloride [Example 9]” the “pH (of solubility determination)” value [1, 4] was 3.16 and the solubility ([1]; compounds of the present invention, 25° C, at the given pH) was 2.74%.

CC1=C(C(=O)OCCCN(C)Cc2ccccc2)C(c2cccc([N+](=O)[O-])c2)C(C(=O)OC(C)C)=C(C)N1 (stereo not shown) [2,6-dimethyl-4-(3'-nitrophenyl)-1,4-dihydropyridine-3,5-dicarboxylic acid 3-isopropylester-5-γ-(N-benzyl-N-methylamino)propyl ester] showed an LD50 (in vivo) of 10 mg/kg.

In the case of CC1=C(C(=O)OCCN(C)Cc2ccccc2)C(c2cccc([N+](=O)[O-])c2)C(C(=O)OC(C)C)=C(C)N1 (stereo not drawn) [Example 1, 2,6-dimethyl-4-(3'-nitrophenyl)-1,4-dihydropyridine-3,5-dicarboxylic acid-3-isopropylester-5-β-(N-benzyl-N-methylamino)-ethyl ester hydrochloride], the “pH (of solubility determination)” value [1, 4] is reported as 4.12 and the solubility [1, 5] is reported as 3100 µg/mL.

For CC1=C(C(=O)OCCN(C)Cc2ccccc2)C(c2ccccc2[N+](=O)[O-])C(C(=O)OC(C)C)=C(C)N1 (stereo not drawn) [Example 4, 2,6-dimethyl-4-(2'-nitrophenyl)-1,4-dihydropyridine-3,5-dicarboxylic acid 3-isopropylester-5-β-(N-benzyl-N-methylamino)ethyl ester], the “pH (of solubility determination)” value [1, 4] was 4.10 and the solubility [1, 5] was 3200 µg/mL (≈ 6300 µM).

For CCOC(=O)C1=C(C)NC(C)=C(C(=O)OCCN(C)Cc2ccccc2)C1c1cccc([N+](=O)[O-])c1 (stereo not drawn) [Example 6, 2,6-dimethyl-4-(3'-nitrophenyl)-1,4-dihydropyridine-3,5-dicarboxylic acid 3-ethylester-5-β-(N-benzyl-N-methylamino)ethyl ester], the “pH (of solubility determination)” value [1, 4] was 4.20 and the solubility [1, 5] was 2900 µg/mL (≈ 5880 µM).

In the case of CCOC(=O)C1=C(C)NC(C)=C(C(=O)OCCN(C)Cc2ccc(OC)cc2)C1c1cccc([N+](=O)[O-])c1 (stereo not drawn) [Example 14, 2,6-dimethyl-4-(3'-nitrophenyl)-1,4-dihydropyridine-3,5-dicarboxylic acid 3-ethyl ester 5-β-(N-methyl-N-p-methoxybenzylamino)ethyl ester], the “pH (of solubility determination)” value [1, 4] is reported as 4.17 and the solubility [1, 5] is reported as 1000 µg/mL (≈ 1910 µM).

With COc1ccc(CN(C)CCOC(=O)C2=C(C)NC(C)=C(C(=O)OCCN(C)Cc3ccc(OC)cc3)C2c2cccc([N+](=O)[O-])c2)cc1 [Example 16, dihydrochloride] the “pH (of solubility determination)” value [1, 4] was 3.20 and the solubility [1, 5] was 25300 µg/mL.

In the case of COC(=O)C1=C(C)NC(C)=C(C(=O)OCCN(C)Cc2ccccc2)C1c1ccccc1C(F)(F)F (stereo not drawn) [Example 24, 2,6-dimethyl-4-(o-trifluoromethyl-phenyl)-1,4-dihydropyridine-3,5-dicarboxylic acid 3-β-(N-benzyl-N-methylamino)ethyl ester 5-methyl ester hydrochloride], the LD50 (in vivo) is reported as 23.7 mg/kg, the “pH (of solubility determination)” value [1, 4] is reported as 3.91 and the solubility [1, 5] is reported as 2300 µg/mL. For the same compound, the “Femoral blood flow (FBF %)” value [2] was 67 ± 10.5%, the “Vertebral blood flow (VBF Δ %)” value [2] was 119 ± 20.4 Δ % and the “Blood pressure change (Δ mmHg)” value [2] was -28 ± 4.9 Δ mmHg. The “Separation ratio (percent increase of vertebral blood flow / that of femoral blood flow)” value [2] was 2.04 ± 0.53.

In the case of COC(=O)C1=C(C)NC(C)=C(C(=O)OCCN(C)Cc2ccccc2)C1c1ccccc1[N+](=O)[O-] (stereo not drawn) [Example 36, 2,6-dimethyl-4-(2'-nitrophenyl)-1,4-dihydropyridine-3.5-dicarboxilic acid 3-methyl ester 5-β-(N-benzyl-N-methylamino) ethyl ester hydrochloride], the LD50 (in vivo) is reported as 14 mg/kg, the “Femoral blood flow (FBF %)” value [2] is reported as 83 ± 14.1% and the “Vertebral blood flow (VBF Δ %)” value [2] is reported as 167 ± 31.7 Δ %. For the same compound, the “Blood pressure change (Δ mmHg)” value [2] was -26 ± 5.0 Δ mmHg and the “Separation ratio (percent increase of vertebral blood flow / that of femoral blood flow)” value [2] was 2.21 ± 0.56.

In the case of COC(=O)C1=C(C)NC(C)=C(C(=O)OC)C1c1ccccc1[N+](=O)[O-] [Nifedipine, 4-(2'-nitrophenyl)-2,6-dimethyl-1,4-dihydropyridine-3,5-dicarboxylic acid dimethyl ester], the “Vasodilation ED50, vertebral artery” value (vertebral artery) is reported as 0.74 ± 0.15 µg, the “Vasodilation ED50, femoral artery” value (femoral artery) is reported as 0.37 ± 0.11 µg and the “Femoral blood flow (FBF %)” value [2] is reported as 109 ± 34.1%. For the same compound, the “Vertebral blood flow (VBF Δ %)” value [2] was 135 ± 28.8 Δ %, the “Blood pressure change (Δ mmHg)” value [2] was -39 ± 3.2 Δ mmHg and the “Coronary vasodilator activity and spasmolytic activity” value [3] was “much excellent coronary vasodilator activity and spasmolytic activity”. The “Heart rate (Δbeats/min.±SE)” value (anesthetized dogs; 0.001 mg/Kg i.v.) was 10±3.5 Δbeats/min, the “Mean blood pressure (ΔmmHg±SE)” value (anesthetized dogs; 0.001 mg/Kg i.v.) was -10±1.6 ΔmmHg and the “Vertebral blood flow (Δ%±SE)” value (anesthetized dogs; 0.001 mg/Kg i.v.) was 47±13.5 Δ%. The “Heart rate (Δbeats/min.±SE)” value (anesthetized dogs; 0.003 mg/Kg i.v.) was 18±3.2 Δbeats/min, the “Mean blood pressure (ΔmmHg±SE)” value (anesthetized dogs; 0.003 mg/Kg i.v.) was -24±5.9 ΔmmHg and the “Vertebral blood flow (Δ%±SE)” value (anesthetized dogs; 0.003 mg/Kg i.v.) was 104±25.8 Δ%. For the same compound, the “Heart rate (Δbeats/min.±SE)” value (anesthetized dogs; 0.01 mg/Kg i.v.) was 17±4.0 Δbeats/min, the “Mean blood pressure (ΔmmHg±SE)” value (anesthetized dogs; 0.01 mg/Kg i.v.) was -39±3.2 ΔmmHg and the “Vertebral blood flow (Δ%±SE)” value (anesthetized dogs; 0.01 mg/Kg i.v.) was 135±28.8 Δ%.

With COc1ccc(Cc2nccc3cc(OC)c(OC)cc23)cc1OC [Papaverine] the “Selectivity ratio (ED50 in femoral artery/ED50 in vertebral artery)” value (vertebral artery; anesthetized dogs) was 0.67, the “Vasodilation ED50, vertebral artery” value (vertebral artery) was 72.8 ± 8.71 µg and the “Vasodilation ED50, femoral artery” value (femoral artery) was 48.8 ± 3.73 µg. It also gave an IC50 (guinea-pig ileum; read-out: Spasmolytic activity, 50% inhibition of contractile response, Acetylchloline 10^-7 g/ml) of 11 µg/mL (≈ 32.4 µM), an IC50 (guinea-pig ileum; read-out: Spasmolytic activity, 50% inhibition of contractile response, BaCl2 2×10^-4 g/ml) of 7.2 µg/mL (≈ 21.2 µM) and an IC50 (guinea-pig ileum; read-out: Spasmolytic activity, 50% inhibition of contractile response, Histamine 10^-7 g/ml) of 7 µg/mL (≈ 20.6 µM). The “Heart rate (Δbeats/min.±SE)” value (anesthetized dogs; 0.1 mg/Kg i.v.) was 8±1.5 Δbeats/min, the “Mean blood pressure (ΔmmHg±SE)” value (anesthetized dogs; 0.1 mg/Kg i.v.) was -9±1.1 ΔmmHg and the “Vertebral blood flow (Δ%±SE)” value (anesthetized dogs; 0.1 mg/Kg i.v.) was 22±3.4 Δ%. The “Heart rate (Δbeats/min.±SE)” value (anesthetized dogs; 0.3 mg/Kg i.v.) was 22±3.5 Δbeats/min, the “Mean blood pressure (ΔmmHg±SE)” value (anesthetized dogs; 0.3 mg/Kg i.v.) was -21±2.8 ΔmmHg and the “Vertebral blood flow (Δ%±SE)” value (anesthetized dogs; 0.3 mg/Kg i.v.) was 67±7.1 Δ%. The “Heart rate (Δbeats/min.±SE)” value (anesthetized dogs; 1.0 mg/Kg i.v.) was 44±4.8 Δbeats/min, the “Mean blood pressure (ΔmmHg±SE)” value (anesthetized dogs; 1.0 mg/Kg i.v.) was -32±3.5 ΔmmHg and the “Vertebral blood flow (Δ%±SE)” value (anesthetized dogs; 1.0 mg/Kg i.v.) was 124±13.8 Δ%.

CCOC(=O)C1=C(C)NC(C)=C(C(=O)OCCN(C)Cc2ccccc2)C1c1cccc([N+](=O)[O-])c1 (stereo not drawn) [R5=C2H5O, A=CH2CH2, R3=drawing 10, R4=CH3, 2,6-Dimethyl-4-(3'-nitrophenyl)-1,4-dihydropyridine-3,5-dicarboxylic acid 3-β-(N-benzyl-N-methylamino)ethyl ester 5-ethyl ester] showed an LD50 (in vivo) of 15 mg/kg.

CCOC(=O)C1=C(C)NC(C)=C(C(=O)OCCN(C)Cc2ccc(OC)cc2)C1c1cccc([N+](=O)[O-])c1 (stereo not shown) [R5=C2H5O, A=CH2CH2, R3=drawing 12, R4=CH3] gave an LD50 (in vivo) of 10 mg/kg.

CCOC(=O)C1=C(C)NC(C)=C(C(=O)OCCN(C)Cc2ccc(Cl)cc2)C1c1cccc([N+](=O)[O-])c1 (stereo not shown) [R5=C2H5O, A=CH2CH2, R3=drawing 13, R4=CH3] showed an LD50 (in vivo) of 12 mg/kg.

CC(=O)C1=C(C)NC(C)=C(C(=O)OCCN(C)Cc2ccccc2)C1c1cccc([N+](=O)[O-])c1 (stereo not drawn) [R5=CH3, A=CH2CH2, R3=drawing 14, R4=CH3, 3-Acetyl-2,6-dimethyl-4-(3'-nitrophenyl)-1,4-dihydropyridine-5-carboxylic acid 3-β-(N-benzyl-N-methylamino)ethyl ester] gave an LD50 (in vivo) of 40 mg/kg.

CC(=O)C1=C(C)NC(C)=C(C(=O)OCCN(C)Cc2ccc(Cl)cc2)C1c1cccc([N+](=O)[O-])c1 (stereo not drawn) [R5=CH3, A=CH2CH2, R3=drawing 15, R4=CH3, 3-Acetyl-2,6-dimethyl-4-(3'-nitrophenyl)-1,4-dihydropyridine-5-carboxylic acid 3-β-(N-p-chlorobenzyl-N-methylamino)ethyl ester] gave an LD50 (in vivo) of 45 mg/kg.

CCN(CCOC(=O)C1=C(C)NC(C)=C(C(=O)OC(C)C)C1c1cccc([N+](=O)[O-])c1)Cc1ccccc1 (stereo not drawn) [R5=drawing 11, A=CH2CH2, R3=drawing 10, R4=C2H5, 2,6-Dimethyl-4-(3'-nitrophenyl)-1,4-dihydropyridine-3,5-dicarboxylic acid 3-β-(N-benzyl-N-ethylamino)ethyl ester 5-isopropyl ester] showed an LD50 (in vivo) of 12 mg/kg.

For CC1=C(C(=O)OCCN(C)Cc2ccccc2)C(c2cccc([N+](=O)[O-])c2)C(C(=O)OC(C)C)=C(C)N1 (stereo not drawn) [R5=drawing 11, A=CH2CH2, R3=drawing 10, R4=CH3, 2,6-Dimethyl-4-(3'-nitrophenyl)-1,4-dihydropyridine-3,5-dicarboxylic acid 3-β-(N-benzyl-N-methylamino)ethyl ester 5-isopropyl ester], the LD50 (in vivo) was 15 mg/kg.

In the case of COC(=O)C1=C(C)NC(C)=C(C(=O)OC)C1c1ccccc1C#N [reference compound], the LD50 (in vivo) is reported as 7.4 mg/kg, the “pH (of solubility determination)” value ([1]; known compounds, 25° C) is reported as 5.80 and the solubility ([1]; known compounds, 25° C, at the given pH, read-out: Solubility) is reported as 10 µg/mL (≈ 30.6 µM). The solubility ([1]; known compounds, pH 4.00, 25° C, read-out: Solubility at pH 4.00) was 1 µg/mL (≈ 3.06 µM), the “Femoral blood flow (FBF %)” value [2] was 109 ± 28.0% and the “Vertebral blood flow (VBF Δ %)” value [2] was 97 ± 16.0 Δ %. The “Blood pressure change (Δ mmHg)” value [2] was -38 ± 6.0 Δ mmHg and the “Separation ratio (percent increase of vertebral blood flow / that of femoral blood flow)” value [2] was 1.20 ± 0.27.
